Data reported in US8753857B2, “Crystal structure of the pro form of a matrix metalloproteinase and an allosteric processing inhibitor” (Janssen Pharmaceutica N.V., priority 2011, dated 2014).

What was measured:
[1] = target: T1, proMMP9 (Homo sapiens, UniProt P14780); assay: Activation of proMMP9 by human fetal lung fibroblast (HFL-1) cultures (Western blot); assay type: cell-based; settings: 3.3 μM, 30 nM elastase, 72 hrs, mAb-L51/82
T1 construct: endogenous in cells; host or cells: HFL-1 (ATCC CCL-153), TNFα-stimulated, with 30 nM human neutrophil elastase added
Protocol: Example 2 was assessed additionally for ability to block the maturation of proMMP9 to active MMP9 in cultures of human fetal lung fibroblasts (HFL-1, American Type Culture Collection #CCL-153). Unlike rat synoviocytes, HFL-1 cells were unable to process proMMP9 to the active form without addition of neutrophil elastase. […] Rather, the function of elastase in this assay may be to inactivate tissue inhibitors of matrix metalloproteinases (TIMPs) that repress endogenous pathways of MMP9 activation (Skold, Liu et al. 1999).
HLF-1 were maintained in monolayer culture in DMEM with 10% FCS and were used between passage numbers 5-15. HLF-1 were embedded in collagen gels as described for rat SCW synoviocytes (vida supra). Half mL gels containing 0.4 million cells were dislodged into wells of 12 well Costar plates containing 1 mL/well of DMEM adjusted to contain 0.05% BSA and 100 ng/mL human TNFα (R&D Systems Cat #210-TA/CF). After overnight culture (37° C. and 5% CO2) wells were adjusted to contain an additional 0.5 mL of DMEM containing 0.05% BSA and with or without 13.2 μM Example 2 (final concentration was 3.3 μM Example 2). Next, cultures were adjusted to contain 30 nM human elastase (Innovative Research). The plates were cultured an additional 72 hrs, at which time MMP9 secreted into the conditioned media was bound to gelatin-sepharose and evaluated by Western blot analysis as described for the rat synoviocyte cultures (vida supra). mAb-51/82 detected three forms of MMP9 in HFL-1 cultures.
A second experiment was performed to determine if the 80 kD form was mature active MMP9 and to determine the potency of Example 2 as an inhibitor of MMP9 maturation in this assay. HFL-1 cells embedded in collagen gels were cultured as described above in the presence of TNFα overnight and the cultures were then adjusted to contain 30 nM elastase and graded concentrations of Example 2 for an additional 72 hrs at which time MMP9 secreted into the conditioned media was bound to gelatin-sepharose and evaluated by Western blot analysis for active MMP9 using pAb-1246 raised against the N-terminal neoepitope of active MMP9 (Table 5). In the absence of Example 2, pAb-1246 readily detected MMP9 with an electrophoretic mobility of approximately 80 kD. […] Inhibition occurred over a dose range with an IC50 of approximately 0.3 μM Example 2.

[2] = system: rats with SCW-induced arthritis; assay: Efficacy in rats with SCW-induced arthritis (ankle thickness, clinical scores); assay type: in vivo, rat; settings: 5, 20, 50 mg/kg BID oral, Day 18-26
Protocol: SCW PG-PS 10S (Beckton Dickinson Cat#210866) suspended in saline was vortexed for 30 seconds and sonicated for 3 min with a probe type sonicator prior to injection. Female Lewis (LEW/N) rats, 5-6 weeks of age (80-100 g) were injected (i.p.) with SCW PG-PS (15 μg of rhamnose/gram BW) in the lower left quadrant of the abdomen using a 1 mL syringe fitted with a 23-gauge needle. Control (disease-free) rats were treated in a similar manner with sterile saline. Control rats were sacrificed on day 5 and groups of SCW-injected rats were sacrificed on day 5 when acute inflammation was maximal or on day 18 when chronic inflammation was established.
To induce arthritis, Female Lewis (LEW/N) rats, 5-6 weeks of age (80-100 g) were injected (i.p.) with SCW PG-PS as described above. Eighteen days later, arthritis was well established. Calipers were used to measure the width (anterior to posterior surface) of the left and right hind ankles of each rat. Each ankle was measured 3 times and averaged, and treatment groups were randomized based on ankle thickness (Table 6). Commencing on day 18, randomized groups of arthritic rats (n=5 rats/group) received vehicle or 5, 20, or 50 mg/kg Example 2 BID by oral gavage. Vehicle consisted of an aqueous mixture containing 2% (v:v) N-methylpyrrolidone, 5% (v:v) glycerine, and 20% (w:v) captisol. Treatment continued daily through the morning of day 26. […]

T1 sequence (P14780 20-707 limits assumed): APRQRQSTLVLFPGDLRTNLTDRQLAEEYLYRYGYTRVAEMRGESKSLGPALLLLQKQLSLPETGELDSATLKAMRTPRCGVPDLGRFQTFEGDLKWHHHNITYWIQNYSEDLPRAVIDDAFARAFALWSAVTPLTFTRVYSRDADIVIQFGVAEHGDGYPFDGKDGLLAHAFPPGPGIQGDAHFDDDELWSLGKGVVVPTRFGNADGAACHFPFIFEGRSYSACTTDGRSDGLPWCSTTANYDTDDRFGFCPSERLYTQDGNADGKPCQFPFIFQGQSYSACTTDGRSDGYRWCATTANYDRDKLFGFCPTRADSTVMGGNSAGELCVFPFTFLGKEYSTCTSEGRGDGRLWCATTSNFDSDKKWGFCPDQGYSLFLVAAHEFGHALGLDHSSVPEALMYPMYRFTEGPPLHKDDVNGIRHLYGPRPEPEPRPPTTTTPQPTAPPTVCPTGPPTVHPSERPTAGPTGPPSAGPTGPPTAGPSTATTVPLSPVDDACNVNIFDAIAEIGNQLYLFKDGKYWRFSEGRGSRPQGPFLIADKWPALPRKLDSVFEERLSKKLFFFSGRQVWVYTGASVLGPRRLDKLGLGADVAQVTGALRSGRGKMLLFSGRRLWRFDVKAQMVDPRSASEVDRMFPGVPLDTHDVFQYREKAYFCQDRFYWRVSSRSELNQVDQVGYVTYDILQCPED

Percent of total signal 80 kD [1]: 7%
Percent of total signal 86 kD [1]: 47%
Percent of total signal 100 kD [1]: 46%
Signal Total [1]: 91346 INT * mm^2
SMILES: Cc1nc(C)c(-c2csc(Nc3cc(S(N)(=O)=O)ccc3OC(C)C)n2)s1 [Example 2, 3-(2′,4′-Dimethyl-[4,5′]bithiazolyl-2-ylamino)-4-isopropoxy-benzenesulfonamide.HBr]
Effect on ankle thickness measurements [2]: dose-dependent decrease
Effect on clinical score measurements [2]: dose dependent decrease
